PMC8434050, “Design, Synthesis and SAR in 2,4,7-Trisubstituted Pyrido[3,2-d]Pyrimidine Series as Novel PI3K/mTOR Inhibitors” (Molecules, 2021)

Assays:
[1] = tested on: normal human fibroblast; assay: Cytotoxic assay on fibroblasts; type: cell-based; details: 48 h of treatment, cell number by Hoechst nuclei staining, mean of triplicate
Protocol: (§1) Cell culture. Skin normal fibroblastic cells were purchased from Lonza (Basel, Switzerland), HuH7, Caco-2, MDA-MB-231 and Hacat cancer cell lines were obtained from the ECACC collection (Porton Down, UK). Cells were grown at 37 °C, 5% CO2 in ECACC recommended media: DMEM for HuH7, MDA-MB-231 and fibroblast, EMEM for CaCo-2 and Hacat. All culture media were supplemented by 10% of FBS, 1% of penicillin-streptomycin and 2 mM glutamine.
(§2) Cytotoxic assay. Chemicals were solubilized in DMSO at a concentration of 10 mM (stock solution) and diluted in culture medium to the desired final concentrations. […] Cells were plated in 96-well plates (4000 cells/well). Twenty-four hours after seeding, cells were exposed to chemicals. After 48h of treatment, cells were washed in PBS and fixed in cooled 90% ethanol/5% acetic acid for 20 min and the nuclei were stained with Hoechst 33,342 (B2261 Sigma). Image acquisition and analysis were performed using a Cellomics ArrayScan VTI/HCS Reader (ThermoScientific). The survival percentages were calculated as the percentage of cell number after compound treatment over cell number after DMSO treatment. The relative IC50 were calculated using the curve fitting XLfit 5.5.0.5 (idbs) integrated in Microsoft Excel as an add-on. The 4 Parameter Logistic Model or Sigmoidal Dose-Response Model was used (fit = (A + ((B − A)/(1 + ((C/x)^D))))).

[2] = target: PI3Kα (Homo sapiens, UniProt P42336); assay: PI3Kα kinase assay (Adapta TR-FRET kit; capillary electrophoresis assay); type: biochemical; details: for IC50: mean of a triplicate experiment, standard deviation in small letters
Protocol: PI3K kinase activity was measured with the Adapta™ assay kit (Invitrogen, PV5099, Life Technologies, Carlsbad, CA, USA) while mTOR kinase activity was measured with the LANCE^TM Ultra kit (Perkin Elmer). […] Depending on the efficiency of the inhibitor, the level of ADP (which competes with the tracer) will vary, thereby directly affecting the binding of the tracer to the antibody. The TR-FRET signal will evolve accordingly. […] The experimental process was the following: the inhibitor solution (2.5 µL) was injected in a plate followed by the addition of 2.5 µL of PI3Kα and ATP/PIP2 (5 µL) solutions. After incubating for an hour at room temperature with no agitation and with the plate sealed, the kinase reaction was stopped by adding the Detection Solution to yield final concentrations of 10 nM for the tracer, 2 nM for the antibody and 30 mM of EDTA (5 µL). All of these compounds were diluted in a Detection Buffer (PV3574, Invitrogen) and the plate was sealed and incubated for the optimal time of 30 min at room temperature without shaking before the reading step.
The CE system used was a 1600 Hewlett Packard^3DCE (Agilent, Waldbronn, Germany) equipped with a photodiode array detection system. Agilent software 3D-CE Chemstation (rev B.04.02) was used to pilot the CE system and for signal acquisition. CE analyses were performed in silica capillaries (66 cm total length, 57.5 cm effective length, 50 µm i.d.) purchased from Polymicro Technologies (Phoenix, AZ, USA). New capillaries were conditioned by 1.0 M NaOH for 30 min and water for 5 min. They were then coated by rinsing with cationic PDADMAC solution (0.2% w/v) [46, 47]. The separation was conducted at −30 kV (reverse polarity) and at 30 °C. All rinse cycles were carried out at 4 bars. Between runs, the capillary was flushed for 1 min with water, 2 min with PDADMAC and 3 min with BGE.
(§6) All solutions were prepared with pure water, filtered through 0.45 µm PVDF Filter and stored at 4 °C. […] Their pH was measured with a MeterLab PHM201 Portable pH-Meter (Radiometer Analytical, Villeurbanne, France). […]

[3] = target: PI3Kβ (Homo sapiens, UniProt P42338); assay: PI3K isoform kinase assay, β (CE-assay); type: biochemical; details: read-out: IC50 on PI3K Isoforms, β
Protocol: (§3) The CE system used was a 1600 Hewlett Packard^3DCE (Agilent, Waldbronn, Germany) equipped with a photodiode array detection system. Agilent software 3D-CE Chemstation (rev B.04.02) was used to pilot the CE system and for signal acquisition. CE analyses were performed in silica capillaries (66 cm total length, 57.5 cm effective length, 50 µm i.d.) purchased from Polymicro Technologies (Phoenix, AZ, USA). New capillaries were conditioned by 1.0 M NaOH for 30 min and water for 5 min. They were then coated by rinsing with cationic PDADMAC solution (0.2% w/v). The separation was conducted at −30 kV (reverse polarity) and at 30 °C. All rinse cycles were carried out at 4 bars. Between runs, the capillary was flushed for 1 min with water, 2 min with PDADMAC and 3 min with BGE.
(§4) All solutions were prepared with pure water, filtered through 0.45 µm PVDF Filter and stored at 4 °C. For PI3K and mTOR assays, the incubation buffer was HEPES/NaOH/MgCl2 (25 mM/8.84 mM/5 mM). Its pH was 7.2 and ionic strength was about 60 mM. […] Their pH was measured with a MeterLab PHM201 Portable pH-Meter (Radiometer Analytical, Villeurbanne, France). […]
(§5) In all enzymatic assays, after incubation, the electric field (of −30 kV) was applied to separate the ADP formed during the enzymatic reaction from the other reactants. ADP was detected at 254 nm for quantification. […]

[4] = target: PI3Kδ (Homo sapiens, UniProt O00329); assay: PI3K isoform kinase assay, δ (CE-assay); type: biochemical; details: read-out: IC50 on PI3K Isoforms, δ
Protocol: as §3, §4, §5

[5] = target: PI3Kγ (Homo sapiens, UniProt P48736); assay: PI3K isoform kinase assay, γ (CE-assay); type: biochemical; details: read-out: IC50 on PI3K Isoforms, γ
Protocol: as §3, §4, §5

[6] = tested on: mammary carcinoma MDA-MB231; assay: Cytotoxic assay on MDA-MB231; type: cell-based; details: Homo sapiens, MDA-MB-231; 48 h of treatment, cell number by Hoechst nuclei staining, mean of triplicate
Protocol: as §1, §2

[7] = target: mTOR (Homo sapiens, UniProt P42345); assay: mTOR kinase assay (LANCE Ultra kit; capillary electrophoresis assay); type: biochemical; details: selectivity index, IC50 mTOR / IC50 PI3Kα
Protocol: The amount of antibody bound to the peptide is directly related to its rate of phosphorylation. […] The experimental process was the following: inhibitor solution (2.5 µL) was injected in a plate followed by the addition of 2.5 µL of mTOR, and ATP/peptide (2.5 µL) solutions. After incubating for two hours at room temperature with no agitation and with the plate sealed, the kinase reaction was stopped by adding 5 μL of a solution at 32 mM EDTA. After 5 min of plate agitation, the detection solution (CR97-100, Perkin-Elmer) containing the antibody (5 μL) was added in each well to yield a final concentration of 2 nM of the antibody. The plate was sealed and incubated for the optimal time of 1h at room temperature without shaking before the assay readout at 665 nm.
The CE system used was a 1600 Hewlett Packard^3DCE (Agilent, Waldbronn, Germany) equipped with a photodiode array detection system. […]
as §6

Sequence of PI3Kα (P42336 whole entry, canonical isoform): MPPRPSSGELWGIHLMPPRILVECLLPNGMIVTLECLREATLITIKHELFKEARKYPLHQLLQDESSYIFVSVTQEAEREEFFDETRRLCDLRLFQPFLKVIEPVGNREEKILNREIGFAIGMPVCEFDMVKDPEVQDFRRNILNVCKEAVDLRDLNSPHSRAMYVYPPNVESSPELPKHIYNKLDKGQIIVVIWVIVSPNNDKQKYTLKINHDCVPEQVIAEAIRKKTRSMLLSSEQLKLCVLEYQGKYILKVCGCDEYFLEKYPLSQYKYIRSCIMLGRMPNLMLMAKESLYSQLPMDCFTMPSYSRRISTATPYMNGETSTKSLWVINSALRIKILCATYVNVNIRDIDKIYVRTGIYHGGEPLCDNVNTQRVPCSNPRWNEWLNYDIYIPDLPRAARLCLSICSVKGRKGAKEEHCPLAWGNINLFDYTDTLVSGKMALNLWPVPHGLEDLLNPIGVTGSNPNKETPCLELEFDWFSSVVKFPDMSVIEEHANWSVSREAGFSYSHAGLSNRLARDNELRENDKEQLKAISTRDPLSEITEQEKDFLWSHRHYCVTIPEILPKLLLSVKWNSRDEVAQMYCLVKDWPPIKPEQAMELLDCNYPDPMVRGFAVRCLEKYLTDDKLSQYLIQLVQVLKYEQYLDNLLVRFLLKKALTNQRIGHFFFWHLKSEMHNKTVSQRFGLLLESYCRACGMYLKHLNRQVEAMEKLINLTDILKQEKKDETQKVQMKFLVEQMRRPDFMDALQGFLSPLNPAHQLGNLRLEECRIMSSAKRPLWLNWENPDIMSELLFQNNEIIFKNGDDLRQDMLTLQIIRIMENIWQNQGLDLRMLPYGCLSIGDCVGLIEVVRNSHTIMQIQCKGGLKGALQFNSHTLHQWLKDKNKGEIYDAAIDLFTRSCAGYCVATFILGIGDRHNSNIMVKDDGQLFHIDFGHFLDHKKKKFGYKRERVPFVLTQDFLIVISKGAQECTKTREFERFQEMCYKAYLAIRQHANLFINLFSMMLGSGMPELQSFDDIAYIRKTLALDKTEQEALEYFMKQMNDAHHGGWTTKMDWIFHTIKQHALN
Sequence of PI3Kα (P27986 whole entry partner, canonical isoform): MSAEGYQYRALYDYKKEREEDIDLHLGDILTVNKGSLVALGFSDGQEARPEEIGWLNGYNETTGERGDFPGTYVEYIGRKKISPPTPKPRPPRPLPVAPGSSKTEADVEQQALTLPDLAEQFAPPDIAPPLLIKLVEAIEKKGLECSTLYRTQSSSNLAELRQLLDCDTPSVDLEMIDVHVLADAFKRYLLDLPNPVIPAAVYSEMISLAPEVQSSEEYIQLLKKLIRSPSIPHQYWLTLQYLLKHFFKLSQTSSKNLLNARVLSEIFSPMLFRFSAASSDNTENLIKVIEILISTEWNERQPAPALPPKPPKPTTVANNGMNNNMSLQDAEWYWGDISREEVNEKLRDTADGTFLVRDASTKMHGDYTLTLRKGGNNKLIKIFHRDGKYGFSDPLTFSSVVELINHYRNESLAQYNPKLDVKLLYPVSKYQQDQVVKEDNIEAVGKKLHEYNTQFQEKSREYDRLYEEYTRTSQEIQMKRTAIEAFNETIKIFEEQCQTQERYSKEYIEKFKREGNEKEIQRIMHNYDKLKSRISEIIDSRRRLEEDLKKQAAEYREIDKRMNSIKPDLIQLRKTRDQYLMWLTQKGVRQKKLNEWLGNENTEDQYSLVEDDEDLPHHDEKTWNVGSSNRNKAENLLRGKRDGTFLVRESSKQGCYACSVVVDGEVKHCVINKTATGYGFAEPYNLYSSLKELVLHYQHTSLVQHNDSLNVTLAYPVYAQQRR
Sequence of PI3Kβ (P42338 whole entry, canonical isoform): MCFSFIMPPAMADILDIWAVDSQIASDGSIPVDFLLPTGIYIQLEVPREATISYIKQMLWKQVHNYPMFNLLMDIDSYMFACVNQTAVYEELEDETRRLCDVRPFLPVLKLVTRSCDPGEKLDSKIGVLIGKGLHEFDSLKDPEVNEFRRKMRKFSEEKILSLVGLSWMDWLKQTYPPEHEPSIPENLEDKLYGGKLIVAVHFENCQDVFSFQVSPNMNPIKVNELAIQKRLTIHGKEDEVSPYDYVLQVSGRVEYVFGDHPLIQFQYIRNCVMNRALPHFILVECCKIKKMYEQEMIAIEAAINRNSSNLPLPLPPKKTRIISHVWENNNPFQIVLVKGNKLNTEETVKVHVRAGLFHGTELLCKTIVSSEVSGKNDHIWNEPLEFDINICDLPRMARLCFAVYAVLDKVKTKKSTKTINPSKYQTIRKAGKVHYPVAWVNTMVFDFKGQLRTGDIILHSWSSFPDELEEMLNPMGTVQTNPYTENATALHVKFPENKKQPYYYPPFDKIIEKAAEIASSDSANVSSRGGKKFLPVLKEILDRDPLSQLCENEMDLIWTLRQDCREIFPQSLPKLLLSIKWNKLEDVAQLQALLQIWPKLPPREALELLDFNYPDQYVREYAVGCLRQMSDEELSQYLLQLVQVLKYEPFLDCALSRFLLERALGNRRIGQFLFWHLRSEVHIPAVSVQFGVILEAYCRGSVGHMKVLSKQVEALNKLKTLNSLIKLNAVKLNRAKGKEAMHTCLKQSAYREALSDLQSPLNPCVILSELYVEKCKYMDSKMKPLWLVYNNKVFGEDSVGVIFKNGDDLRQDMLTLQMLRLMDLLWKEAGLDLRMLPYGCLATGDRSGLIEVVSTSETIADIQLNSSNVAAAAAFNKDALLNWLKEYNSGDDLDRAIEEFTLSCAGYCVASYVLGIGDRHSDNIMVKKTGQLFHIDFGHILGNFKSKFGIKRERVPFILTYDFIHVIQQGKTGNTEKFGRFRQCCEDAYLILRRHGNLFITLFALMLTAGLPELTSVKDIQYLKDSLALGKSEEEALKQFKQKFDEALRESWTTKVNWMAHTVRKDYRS
Sequence of PI3Kβ (P27986 whole entry partner, canonical isoform): as the sequence (P27986 whole entry partner, canonical isoform) above
Sequence of PI3Kδ (O00329 whole entry, canonical isoform): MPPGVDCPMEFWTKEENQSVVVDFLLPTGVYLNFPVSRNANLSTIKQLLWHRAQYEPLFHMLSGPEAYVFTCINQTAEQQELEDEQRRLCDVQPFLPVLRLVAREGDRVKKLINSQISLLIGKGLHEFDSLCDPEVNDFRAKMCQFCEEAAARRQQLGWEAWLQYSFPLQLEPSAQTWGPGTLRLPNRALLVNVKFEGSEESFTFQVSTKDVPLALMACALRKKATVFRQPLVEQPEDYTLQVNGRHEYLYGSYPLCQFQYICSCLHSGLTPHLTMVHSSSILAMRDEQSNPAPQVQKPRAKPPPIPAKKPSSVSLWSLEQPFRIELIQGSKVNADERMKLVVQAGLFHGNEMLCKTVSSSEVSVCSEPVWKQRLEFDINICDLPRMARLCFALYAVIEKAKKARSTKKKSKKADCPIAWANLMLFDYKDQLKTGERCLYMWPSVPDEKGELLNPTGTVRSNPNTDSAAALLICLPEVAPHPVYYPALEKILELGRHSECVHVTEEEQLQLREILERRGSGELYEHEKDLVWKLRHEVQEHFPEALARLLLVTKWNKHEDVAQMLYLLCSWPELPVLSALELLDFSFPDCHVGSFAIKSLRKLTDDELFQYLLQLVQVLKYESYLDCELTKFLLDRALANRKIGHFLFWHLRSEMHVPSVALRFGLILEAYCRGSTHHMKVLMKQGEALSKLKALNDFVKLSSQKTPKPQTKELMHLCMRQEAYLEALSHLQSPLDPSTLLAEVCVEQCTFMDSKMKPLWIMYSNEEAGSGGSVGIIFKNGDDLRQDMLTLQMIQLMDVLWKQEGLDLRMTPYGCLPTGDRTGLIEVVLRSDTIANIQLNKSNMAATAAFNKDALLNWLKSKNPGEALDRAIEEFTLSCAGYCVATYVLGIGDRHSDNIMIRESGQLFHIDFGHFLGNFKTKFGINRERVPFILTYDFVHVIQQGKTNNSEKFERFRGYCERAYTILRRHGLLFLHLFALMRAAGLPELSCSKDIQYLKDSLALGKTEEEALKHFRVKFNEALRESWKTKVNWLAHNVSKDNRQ
Sequence of PI3Kδ (P27986 whole entry partner, canonical isoform): as the sequence (P27986 whole entry partner, canonical isoform) above
Sequence of PI3Kγ (P48736 whole entry, canonical isoform): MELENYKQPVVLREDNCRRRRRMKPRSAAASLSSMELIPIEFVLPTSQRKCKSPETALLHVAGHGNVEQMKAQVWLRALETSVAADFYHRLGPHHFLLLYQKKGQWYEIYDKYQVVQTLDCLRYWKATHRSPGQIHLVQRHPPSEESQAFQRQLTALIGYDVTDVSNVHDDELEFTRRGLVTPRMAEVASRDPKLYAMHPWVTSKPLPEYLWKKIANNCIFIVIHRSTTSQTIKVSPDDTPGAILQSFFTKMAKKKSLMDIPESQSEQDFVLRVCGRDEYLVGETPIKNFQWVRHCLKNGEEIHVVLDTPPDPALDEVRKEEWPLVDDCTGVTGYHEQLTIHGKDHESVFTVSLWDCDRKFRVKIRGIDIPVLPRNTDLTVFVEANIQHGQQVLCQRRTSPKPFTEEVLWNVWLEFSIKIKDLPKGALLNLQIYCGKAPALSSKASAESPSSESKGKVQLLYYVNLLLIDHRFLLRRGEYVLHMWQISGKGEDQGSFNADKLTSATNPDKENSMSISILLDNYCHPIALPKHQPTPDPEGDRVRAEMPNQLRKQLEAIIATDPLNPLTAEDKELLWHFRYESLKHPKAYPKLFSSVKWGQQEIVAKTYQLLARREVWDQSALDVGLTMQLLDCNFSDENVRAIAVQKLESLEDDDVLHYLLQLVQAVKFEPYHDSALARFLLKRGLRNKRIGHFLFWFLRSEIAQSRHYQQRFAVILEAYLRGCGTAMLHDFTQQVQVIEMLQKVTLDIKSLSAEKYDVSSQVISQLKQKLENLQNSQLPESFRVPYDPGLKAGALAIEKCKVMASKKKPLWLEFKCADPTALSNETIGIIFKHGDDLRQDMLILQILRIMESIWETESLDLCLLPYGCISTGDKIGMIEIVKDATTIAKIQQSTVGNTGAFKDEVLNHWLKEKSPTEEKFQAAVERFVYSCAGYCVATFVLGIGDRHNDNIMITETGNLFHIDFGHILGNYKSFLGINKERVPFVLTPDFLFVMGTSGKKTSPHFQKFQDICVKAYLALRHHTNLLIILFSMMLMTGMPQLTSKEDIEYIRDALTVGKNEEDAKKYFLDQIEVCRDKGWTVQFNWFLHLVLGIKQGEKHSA

Row | Structure (SMILES) | IC50 [1] [µM] | IC50 [2] [µM] | IC50 [3] [µM] | IC50 [4] [µM] | IC50 [5] [µM] | IC50 [6] [µM] | fold reduction in the PI3Kα inhibition level ([2]; C-7 hydroxymethyl compared with chlorine or methyl derivatives 5 and 6) [fold] | SI (mTOR/PI3Kα Ratio) [7]
1 | COCc1cn(Cc2cnc3c(N4CCOCC4)nc(-c4cccc(O)c4)nc3c2)nn1 [Compound 21, 3-(7-((4-(Methoxymethyl)-1H-1.2.3-triazol-1-yl)methyl)-4-morpholinylpyrido[3,2-d]pyrimidin-2-yl)phenol] | > 25 | 0.01 | 0.05 | 1.2 | 2 | – | – | –
2 | Oc1cccc(-c2nc(N3CCOCC3)c3ncc(Cl)cc3n2)c1 [Compound 5, 7-Chloro-2-(3-hydroxyphenyl)-4-morpholinylpyrido[3,2-d]pyrimidine] | > 25 | – | – | – | – | > 25 | – | –
3 | OCc1cnc2c(N3CCOCC3)nc(-c3cccc(O)c3)nc2c1 [Compound 15, 3-(7-(Hydroxymethyl)-4-morpholinylpyrido[3,2-d]pyrimidin-2-yl)phenol] | – | – | – | – | – | – | 30 | –
4 | [N-]=[N+]=NCc1cnc2c(N3CCOCC3)nc(-c3cccc(O)c3)nc2c1 [Compound 19, 3-(7-(Azidomethyl)-4-morpholinylpyrido[3,2-d]pyrimidin-2-yl)phenol] | > 25 | – | – | – | – | > 25 | – | –
5 | CO/N=C/c1cnc2c(N3CCOCC3)nc(-c3cccc(O)c3)nc2c1 [Compound 32, 2-(3-Hydroxyphenyl)-4-morpholinylpyrido[3,2-d]pyrimidine-7-carbaldehyde O-methyl oxime] | – | 0.003 | – | – | – | > 25 | – | 33.3
6 | Cc1cnc2c(N3CCOCC3)nc(-c3cccc(O)c3)nc2c1 [Compound 6, 3-(7-Methyl-4-morpholinylpyrido[3,2-d]pyrimidin-2-yl)phenol] | – | – | 0.45 | 1.4 | 5.5 | – | – | 4.6
